# From patent US9029378B2, “Substituted bicyclic aromatic carboxamide and urea compounds as vanilloid receptor ligands” (Gruenenthal GmbH, priority 2011, dated 2015)
# Target: T1, vanilloid receptor 1 (VR1/TRPV1 receptor) (Homo sapiens, UniProt Q8NER1)
# T1 construct: expressed in transfected cells; host or cells: CHO K1
# Test: Functional testing on the vanilloid receptor 1 (FLIPR Ca2+ influx assay, capsaicin)
# Format: cell-based, human being
# Design: key to (f) (human being) Cap: effect in words (agonist / no effect): AG=agonist; NE=no effect
# Details: @5 μM; Cap=capsaicin; read-out: inhibition (as a percentage), (f) (human being) Cap
# Description: Furthermore, preference may be given to compounds according to the invention that cause a 50 percent displacement of capsaicin, which is present at a concentration of 100 nM, in a FLIPR assay with CHO K1 cells which were transfected with the human VR1 gene at a concentration of less than 2,000 nM, preferably less than 1,000 nM, particularly preferably less than 300 nM, most particularly preferably less than 100 nM, even more preferably less than 75 nM, additionally preferably less than 50 nM, most preferably less than 10 nM.
# In the process, the Ca^2+ influx is quantified in the FLIPR assay with the aid of a Ca^2+-sensitive dye (type Fluo-4, Molecular Probes Europe BV, Leiden, the Netherlands) in a fluorescent imaging plate reader (FLIPR, Molecular Devices, Sunnyvale, USA), as described hereinafter.
# Pharmacological Methods I. Functional Testing Carried Out on the Vanilloid Receptor 1 (VR1/TRPV1 Receptor) […]
# The number of cells in the suspension is set to 3×10^5 per mL and 150 μL of this suspension are in each case introduced into a recess in the cell culture plates coated as described hereinbefore. In the incubator the plates are left for two to three days at 37° C., 5% by volume of CO2 and 95% relative humidity. Subsequently, the cells are loaded with 2 μM of Fluo-4 and 0.01% by volume of Pluronic F127 (Molecular Probes Europe BV, Leiden, the Netherlands) in HBSS buffer (Hank's buffered saline solution, Gibco Invitrogen GmbH, Karlsruhe, Germany) for 30 min at 37° C., washed 3 times with HBSS buffer and after further incubation for 15 minutes at room temperature used for Ca^2+ measurement in a FLIPR assay. The Ca^2+-dependent fluorescence is in this case measured before and after the addition of substances (λex=488 nm, λem=540 nm). Quantification is carried out by measuring the highest fluorescence intensity (FC, fluorescence counts) over time.
# The FLIPR protocol consists of 2 substance additions. First the compounds to be tested (10 μM) are pipetted onto the cells and the Ca^2+ influx is compared with the control (capsaicin 10 μM). This provides the result in % activation based on the Ca^2+ signal after the addition of 10 μM of capsaicin (CP). After 5 minutes' incubation, 100 nM of capsaicin are applied and the Ca^2+ influx is also determined.
# Desensitising agonists and antagonists lead to suppression of the Ca^2+ influx. The % inhibition is calculated compared to the maximum achievable inhibition with 10 μM of capsazepine. Triple analyses (n=3) are carried out and repeated in at least 3 independent experiments (N=4). Starting from the percentage displacement caused by different concentrations of the compounds to be tested of general formula I, IC50 inhibitory concentrations which cause a 50-percent displacement of capsaicin were calculated. Ki values for the test substances were obtained by conversion by means of the Cheng-Prusoff equation (Cheng, Prusoff; Biochem. Pharmacol. 22, 3099-3108, 1973).
# The affinity of the compounds of to the invention for the vanilloid receptor 1 (VR1/TRPV1 receptor) was determined as described hereinbefore (pharmacological method I). The compounds of the invention display outstanding affinity to the VR1/TRPV1 receptor (Table 2). In Table 2 the abbreviations below have the following meanings: • Cap=capsaicin • AG=agonist • NE=no effect
# The value after the “@” symbol indicates the concentration at which the inhibition (as a percentage) was respectively determined.
# T1 sequence (Q8NER1 whole entry): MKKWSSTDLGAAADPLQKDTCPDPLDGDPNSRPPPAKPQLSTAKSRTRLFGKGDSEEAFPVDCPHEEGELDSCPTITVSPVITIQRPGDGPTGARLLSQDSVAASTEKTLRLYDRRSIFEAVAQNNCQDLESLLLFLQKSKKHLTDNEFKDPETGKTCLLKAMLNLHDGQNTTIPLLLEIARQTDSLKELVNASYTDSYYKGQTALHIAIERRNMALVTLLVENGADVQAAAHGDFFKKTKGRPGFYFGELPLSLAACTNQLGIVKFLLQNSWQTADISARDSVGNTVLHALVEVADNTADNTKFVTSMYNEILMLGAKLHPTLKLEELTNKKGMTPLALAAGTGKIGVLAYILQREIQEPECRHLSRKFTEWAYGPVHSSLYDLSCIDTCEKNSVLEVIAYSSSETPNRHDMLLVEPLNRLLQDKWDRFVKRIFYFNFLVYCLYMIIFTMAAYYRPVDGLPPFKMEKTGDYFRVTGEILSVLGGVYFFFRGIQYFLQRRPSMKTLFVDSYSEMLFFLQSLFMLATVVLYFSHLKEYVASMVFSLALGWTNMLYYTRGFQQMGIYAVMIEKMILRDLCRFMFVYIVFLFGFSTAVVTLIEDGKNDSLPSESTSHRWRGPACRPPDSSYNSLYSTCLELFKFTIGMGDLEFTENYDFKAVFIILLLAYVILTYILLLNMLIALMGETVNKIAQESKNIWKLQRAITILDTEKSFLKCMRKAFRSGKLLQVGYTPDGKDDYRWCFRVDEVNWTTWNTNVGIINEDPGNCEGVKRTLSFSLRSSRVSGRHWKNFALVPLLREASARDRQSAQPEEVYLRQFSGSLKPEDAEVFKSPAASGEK
row,Molecule,inhibition at 5 µM [%]
1,"CC(=O)Nc1nc2ccc(NC(=O)NCc3ccc(C(F)(F)F)nc3N3CCC(C)CC3)cc2s1 [Example 35, N-(6-(3-((2-(4-Methylpiperidin-1-yl)-6-(trifluoromethyl)pyridin-3-yl)methyl)ureido)benzo[d]thiazol-2-yl)acetamide]",47
2,"CC1CCN(c2nc(C(F)(F)F)ccc2CNC(=O)Nc2ccnc3[nH]ncc23)CC1 [Example 9, 1-((2-(4-Methylpiperidin-1-yl)-6-(trifluoromethyl)pyridin-3-yl)methyl)-3-(1H-pyrazolo[3,4-b]pyridin-4-yl)urea]",22

# Same assay, conditions: Cap=capsaicin
row,Molecule,(f) (human being) Cap: effect in words (agonist / no effect)
1,"CC1CCN(c2nc(C(F)(F)F)ccc2CNC(=O)Nc2ccnc3ccccc23)CC1 [Example 17, 1-((2-(4-Methylpiperidin-1-yl)-6-(trifluoromethyl)pyridin-3-yl)methyl)-3-(quinolin-4-yl)urea]",AG

# Same assay, conditions: Cap=capsaicin (100 nM); Ki from IC50 by Cheng-Prusoff equation; read-out: (f) Ki (human being) [nM] Cap
row,Molecule,Ki [nM]
1,"CC1CCN(c2nc(C(F)(F)F)ccc2CNC(=O)Nc2cnc3[nH]ncc3c2)CC1 [Example 5, 1-((2-(4-methylpiperidin-1-yl)-6-(trifluoromethyl)pyridin-3-yl)methyl)-3-(1H-pyrazolo[3,4-b]pyridin-5-yl)urea]",21
2,"CC1CCN(c2nc(C(F)(F)F)ccc2CNC(=O)C(C)c2cnc3ccccc3c2)CC1 (stereo not drawn) [Example 14, N-((2-(4-Methylpiperidin-1-yl)-6-(trifluoromethyl)pyridin-3-yl)methyl)-2-(quinolin-3-yl)propanamide]",44
3,"CC1CCN(c2nc(C(F)(F)F)ccc2CNC(=O)Nc2cccc3c(O)ncnc23)CC1 [Example 89, 1-(4-Hydroxyquinazolin-8-yl)-3-((2-(4-methylpiperidin-1-yl)-6-(trifluoromethyl)pyridin-3-yl)methyl)urea]",17
4,"CC1CCN(c2nc(C(F)(F)F)ccc2CNC(=O)Nc2ccc3cc[nH]c3c2)CC1 [Example 22, 1-(1H-Indol-6-yl)-3-((2-(4-methylpiperidin-1-yl)-6-(trifluoromethyl)pyridin-3-yl)methyl)urea]",24
5,"Cc1nc2cc(NC(=O)NCc3ccc(C(F)(F)F)nc3N3CCC(C)CC3)ccc2s1 [Example 30, 1-(2-Methylbenzo[d]thiazol-5-yl)-3-((2-(4-methylpiperidin-1-yl)-6-(trifluoromethyl)pyridin-3-yl)methyl)urea]",22
6,"1-(6,7-Dihydro-5H-cyclopenta[b]pyridin-3-yl)-3-((2-(4-methylpiperidin-1-yl)-6-(trifluoromethyl)pyridin-3-yl)methyl)urea [Example 1]",9
7,"COc1nccc2c(NC(=O)NCc3ccc(C(F)(F)F)nc3N3CCC(C)CC3)cccc12 [Example 80, 1-(1-Methoxyisoquinolin-5-yl)-3-((2-(4-methylpiperidin-1-yl)-6-(trifluoromethyl)pyridin-3-yl)methyl)urea]",8
8,"CC1CCN(c2nc(C(F)(F)F)ccc2CNC(=O)Nc2ccc3cncnc3c2)CC1 [Example 91, 1-((2-(4-Methylpiperidin-1-yl)-6-(trifluoromethyl)pyridin-3-yl)methyl)-3-(quinazolin-7-yl)urea]",8
9,"COc1ccc(NC(=O)NCc2ccc(C(F)(F)F)nc2N2CCC(C)CC2)c2cnccc12 [Example 88, 1-(5-Methoxyisoquinolin-8-yl)-3-((2-(4-methylpiperidin-1-yl)-6-(trifluoromethyl)pyridin-3-yl)methyl)urea]",62

# Other lines, results leading:
row,Ki [nM],Molecule
1,8,"CC1CCN(c2nc(C(F)(F)F)ccc2CNC(=O)Nc2cccc3[nH]c(C(C)(C)C)cc23)CC1 [Example 43, 1-(2-Tert-butyl-1H-indol-4-yl)-3-((2-(4-methylpiperidin-1-yl)-6-(trifluoromethyl)pyridin-3-yl)methyl)urea]"
2,5,"O=C(NCc1ccc(C(F)(F)F)nc1SC1CCCCC1)Nc1ccc2cccnc2c1 [Example 71, 1-((2-(Cyclohexylthio)-6-(trifluoromethyl)pyridin-3-yl)methyl)-3-(quinolin-7-yl)urea]"
3,5,"CC1CCN(c2nc(C(F)(F)F)ccc2CNC(=O)Nc2cccc3c2ccn3C)CC1 [Example 40, 1-(1-Methyl-1H-indol-4-yl)-3-((2-(4-methylpiperidin-1-yl)-6-(trifluoromethyl)pyridin-3-yl)methyl)urea]"
4,4,"Cc1nc2ccc(NC(=O)NCc3ccc(C(F)(F)F)nc3N3CCC(C)CC3)cc2s1 [Example 33, 1-(2-Methylbenzo[d]thiazol-6-yl)-3-((2-(4-methylpiperidin-1-yl)-6-(trifluoromethyl)pyridin-3-yl)methyl)urea]"
5,4,"O=C(NCc1ccc(C(F)(F)F)nc1SC1CCCCC1)Nc1cncc2ccccc12 [Example 19, 1-((2-(Cyclohexylthio)-6-(trifluoromethyl)pyridin-3-yl)methyl)-3-(isoquinolin-4-yl)urea]"
6,3,"CC1CCN(c2nc(C(F)(F)F)ccc2CNC(=O)Nc2cc(F)cc3[nH]ncc23)CC1 [Example 51, 1-(6-Fluoro-1H-indazol-4-yl)-3-((2-(4-methylpiperidin-1-yl)-6-(trifluoromethyl)pyridin-3-yl)methyl)urea]"
7,2,"CC1CCN(c2nc(C(F)(F)F)ccc2CNC(=O)Nc2cccc3c2ccn3S(C)(=O)=O)CC1 [Example 42, 1-((2-(4-Methylpiperidin-1-yl)-6-(trifluoromethyl)pyridin-3-yl)methyl)-3-(1-(methylsulfonyl)-1H-indol-4-yl)urea]"
8,2,"CC1CCN(c2nc(C(F)(F)F)ccc2CNC(=O)C(C)c2ccnc3[nH]ncc23)CC1 (stereo not drawn) [Example 8, N-((2-(4-Methylpiperidin-1-yl)-6-(trifluoromethyl)pyridin-3-yl)methyl)-2-(1H-pyrazolo[3,4-b]pyridin-4-yl)propanamide]"
9,2,"Cn1ncc2c(NC(=O)NCc3ccc(C(F)(F)F)nc3OCC3CCC3)cccc21 [Example 48, 1-((2-(Cyclobutylmethoxy)-6-(trifluoromethyl)pyridin-3-yl)methyl)-3-(1-methyl-1H-indazol-4-yl)urea]"
10,2,"CC1CCN(c2nc(C(F)(F)F)ccc2CNC(=O)Nc2cncc3ccccc23)CC1 [Example 18, 1-(Isoquinolin-4-yl)-3-((2-(4-methylpiperidin-1-yl)-6-(trifluoromethyl)pyridin-3-yl)methyl)urea]"
11,1,"CC1CCN(c2nc(C(F)(F)F)ccc2CNC(=O)Nc2cccc3ncsc23)CC1 [Example 60, 1-(Benzo[d]thiazol-7-yl)-3-((2-(4-methylpiperidin-1-yl)-6-(trifluoromethyl)pyridin-3-yl)methyl)urea]"
12,1,"CC1CCN(c2nc(C(C)(C)C)ccc2CNC(=O)Nc2cccc3ncccc23)CC1 [Example 64, 1-((6-Tert-butyl-2-(4-methylpiperidin-1-yl)pyridin-3-yl)methyl)-3-(quinolin-5-yl)urea]"
13,1,"CC1CCN(c2nc(C(F)(F)F)ccc2CNC(=O)Nc2cccc3[nH]ccc23)CC1 [Example 38, 1-(1H-Indol-4-yl)-3-((2-(4-methylpiperidin-1-yl)-6-(trifluoromethyl)pyridin-3-yl)methyl)urea]"
14,1,"Cc1nccc2c(NC(=O)NCc3ccc(C(F)(F)F)nc3N3CCC(C)CC3)cccc12 [Example 78, 1-(1-Methylisoquinolin-5-yl)-3-((2-(4-methylpiperidin-1-yl)-6-(trifluoromethyl)pyridin-3-yl)methyl)urea]"
15,1,"COc1nc(Cl)cc2c(NC(=O)NCc3ccc(C(F)(F)F)nc3N3CCC(C)CC3)cccc12 [Example 82, 1-(3-Chloro-1-methoxyisoquinolin-5-yl)-3-((2-(4-methylpiperidin-1-yl)-6-(trifluoromethyl)pyridin-3-yl)methyl)urea]"
